Measured values: PMC4467461, “Small-molecule activation of SERCA2a SUMOylation for the treatment of heart failure” (Nature Communications, 2015)

Molecular target: T1, SUMO E1 SAE1 V315F mutant (Homo sapiens, UniProt Q9UBE0+Q9UBT2, V315F)
T1 construct: GST (N); made in house; host or cells: Escherichia coli BL21
T1 sequence (Q9UBE0 1-346 V315F): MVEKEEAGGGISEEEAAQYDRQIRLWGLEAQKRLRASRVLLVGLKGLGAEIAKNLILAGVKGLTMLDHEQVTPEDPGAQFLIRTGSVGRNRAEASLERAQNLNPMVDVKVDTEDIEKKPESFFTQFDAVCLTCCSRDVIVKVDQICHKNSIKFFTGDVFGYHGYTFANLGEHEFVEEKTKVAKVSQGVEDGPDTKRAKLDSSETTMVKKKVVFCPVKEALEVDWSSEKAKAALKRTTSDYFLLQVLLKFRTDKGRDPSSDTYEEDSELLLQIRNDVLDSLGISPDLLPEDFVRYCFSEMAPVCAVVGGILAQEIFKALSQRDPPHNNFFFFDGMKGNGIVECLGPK
T1 sequence (Q9UBT2 1-640): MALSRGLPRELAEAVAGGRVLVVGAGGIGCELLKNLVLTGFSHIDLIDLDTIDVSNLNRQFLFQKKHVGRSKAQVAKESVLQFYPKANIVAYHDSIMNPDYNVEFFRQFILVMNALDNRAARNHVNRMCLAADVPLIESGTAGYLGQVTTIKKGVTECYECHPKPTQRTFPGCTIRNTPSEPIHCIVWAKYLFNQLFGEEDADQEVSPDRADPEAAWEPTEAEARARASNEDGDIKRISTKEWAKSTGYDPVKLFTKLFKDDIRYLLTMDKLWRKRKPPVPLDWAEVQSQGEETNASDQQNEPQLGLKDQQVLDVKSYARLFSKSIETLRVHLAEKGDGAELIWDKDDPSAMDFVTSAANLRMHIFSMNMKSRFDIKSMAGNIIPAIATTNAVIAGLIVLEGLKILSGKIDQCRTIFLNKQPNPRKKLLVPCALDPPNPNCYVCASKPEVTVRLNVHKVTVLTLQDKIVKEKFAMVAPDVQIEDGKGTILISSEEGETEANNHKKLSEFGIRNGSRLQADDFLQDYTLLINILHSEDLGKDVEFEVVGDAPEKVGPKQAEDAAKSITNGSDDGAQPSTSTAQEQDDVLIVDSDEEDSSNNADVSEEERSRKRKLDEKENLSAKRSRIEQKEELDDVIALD
Test: SUMO E1 activity assays with SAE1 V315F mutant
Type: biochemical
Experimental: Figure 3 SUMO-specific activating enzyme, E1, is a direct target of N106. Mechanism of action of N106 on individual steps in the SUMOylation cascade in vitro. (a) Inorganic pyrophosphate resulting from ATP hydrolysis in E1-catalysed SUMO-1 activation in the presence of increasing concentration of N106 compound was assessed by fluorogenic pyrophosphate assay kit. Recombinant human SUMO-specific E1 (0.05 μM), human Ubc9 (0.25 μM), human SUMO-1 (12.5 μM) and ATP (1 mM) were incubated with increasing concentration of N106 for 30 min at 37 °C and quantified using a fluorescence microplate reader. (b) The SAE2-SUMO-1 conjugation was detected followed by western blotting with anti-SAE2 antibodies. SUMO E1 (0.05 μM), SUMO-1 (12.5 μM) and ATP (1 mM) were co-incubated with increasing concentration of N106 for 30 min at 37 °C. The reaction mixtures were separated on 7.5% SDS–PAGE gel under non-reducing conditions. (c) E2-SUMO-1 conjugation was visualized by western blotting with anti-Ubc9 antibody. SUMO E1 (0.05 μM), Ubc9 (0.25 μM), SUMO-1 (12.5 μM) and ATP (1 mM) were incubated without or with increasing concentration of N106 for 30 min at 37 °C. […] (e) ATP hydrolytic activity of WT and mutant SUMO E1 are determined. (f) The E1-SUMO-1 conjugation was detected followed by western blot analysis with anti-SAE2 antibody. *The SAE2-SUMO-1 conjugated bands. […]

SMILES: COc1ccc(-c2nnc(Nc3nc4c(OC)cccc4s3)o2)cc1 [Compound N106, N-(4-methoxybenzo[d]thiazol-2-yl)-5-(4-methoxyphenyl)-1,3,4-oxadiazol-2-amine]
- ATP hydrolysis activity with N106, compared with wild-type protein (V315F mutant): significantly lower
- SUMO E1-SUMO and SUMO E2-SUMO conjugations in the presence of N106, compared with WT (V315F mutant SAE1): weaker
